Data reported in patent publication US9216954B2, “Serine racemase inhibitor” (National University Corporation University of Toyama, priority 2012, dated 2015).

What was measured:
[1] = target: T1, Recombinant SR (serine racemase) (Homo sapiens, UniProt Q9GZT4); assay: Serine racemase (SR) enzyme activity measurement: L-serine racemization reaction, D-serine quantified via Dsd1/DNP colorimetry; type: biochemical; settings: compound 0.3 mM (footnote ‡); value in parentheses = malonic acid (control) in the same run
T1 construct: made in house; host or cells: Escherichia coli
T1 sequence (Q9GZT4 1-340): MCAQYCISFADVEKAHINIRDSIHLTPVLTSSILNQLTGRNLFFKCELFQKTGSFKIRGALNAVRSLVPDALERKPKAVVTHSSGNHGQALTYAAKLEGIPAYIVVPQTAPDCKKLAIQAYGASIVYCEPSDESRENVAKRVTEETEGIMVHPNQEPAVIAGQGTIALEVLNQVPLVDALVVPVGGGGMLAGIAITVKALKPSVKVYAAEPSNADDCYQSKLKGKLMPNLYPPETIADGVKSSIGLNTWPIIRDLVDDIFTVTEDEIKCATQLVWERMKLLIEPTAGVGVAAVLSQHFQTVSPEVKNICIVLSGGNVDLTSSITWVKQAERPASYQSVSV
Method: (1) L-Serine Racemization Reaction
(2) Quantitative Determination of D-serine
D-serine was quantitatively determined in accordance with the method proposed by Ito et al. (Analytical Biochemistry, 371: 167-172, 2007).
A solution including 25 μL of 100 mM HEPES (pH: 8.0), 20 μM PLP, and 2 μg of recombinant D-serine dehydratase 1 (Dsd1) was added to 25 μL of the reaction mixture (see (1)), and the mixture was reacted at 30° C. for 30 minutes.
In order to measure pyruvic acid produced from D-serine by Dsd1 using a colorimetric reaction, 50 μL of 0.05% DNP/2M HCl was added to 50 μL of the reaction solution, and the mixture was reacted at 30° C. for 5 minutes. After the addition of 100 μL of ethanol and 125 μL of 10 M NaOH, the mixture was sufficiently mixed, and reacted at room temperature for 10 minutes, and the absorbance at a wavelength of 515 nm was measured using a spectrophotometer.

| SMILES | % human (0. 3 mM) [1] | melting point |
| --- | --- | --- |
| COc1ccc(S(=O)(=O)Nc2ccccc2NC(=O)Nc2ccc(Cl)c(Cl)c2)cc1 [ED-31, N-{2-[3-(3,4-Dichloro-phenyl)-ureido]-phenyl}-4-methoxy-benzenesulfonamide] | 58% |  |
| O=C(Nc1ccc(Cl)cc1Cl)Nc1ccccc1NS(=O)(=O)c1ccc(Cl)cc1 [ED-36, 4-Chloro-N-{2-[3-(2,4-dichloro-phenyl)-ureido]-phenyl}-benzenesulfonamide] | 46% |  |
| O=C(Nc1ccc(Cl)c(Cl)c1)Nc1ccccc1NS(=O)(=O)c1ccc(Br)cc1 [ED-27, 4-Bromo-N-{2-[3-(3,4-dichloro-phenyl)-ureido]-phenyl}-benzenesulfonamide] | 48% |  |
| O=C(O)CC(=O)O [malonic acid, reference compound] | 51% |  |
| Cc1ccc(/C=C/S(=O)(=O)Nc2ccccc2NC(=O)Nc2ccc(Cl)c(Cl)c2)cc1 [ED-37, 2-p-Tolyl-ethenesulfonic acid {2-[3-(3,4-dichloro-phenyl)-ureido]phenyl}-amide] | 48% |  |
| O=C(Cc1cccs1)NNC(=S)NC(=O)Cc1ccccc1 [LW-18, 2-Phenyl-N—[N′-(2-thiophen-2-yl-acetyl)-hydrazinocarbothioyl]-acetamide] |  | 161 to 162 °C |
| COc1ccc(/C=C/C(=O)NC(=S)NNC(=O)Cc2cccs2)c(OC)c1 [LW-6, 3-(2,4-Dimethoxy-phenyl)-N—[N′-(2-thiophen-2-yl-acetyl)-hydrazinocarbothioyl]-acrylamide] |  | 207 to 208 °C |
| Cc1ccc(/C=C/S(=O)(=O)NCC(=O)NCc2ccc(Br)cc2)cc1 [DR-31, N-(4-Bromo-benzyl)-2-(2-p-tolyl-ethenesulfonylamino)-acetamide] |  | 200 to 201 °C |
| CC(C)c1ccc(/C=C/C(=O)NC(=S)NNC(=O)Cc2cccs2)cc1 [LW-8, 3-(4-Isopropyl-phenyl)-N—[N′-(2-thiophen-2-yl-acetyl)-hydrazinocarbothioyl]-acrylamide] |  | 201 to 202 °C |
| COc1cccc(OC)c1/C=C/C(=O)NC(=S)NNC(=O)Cc1cccs1 [LW-10, 3-(2,6-Dimethoxy-phenyl)-N—[N′-(2-thiophen-2-yl-acetyl)-hydrazinocarbothioyl]-acrylamide] |  | 220 to 221 °C |
| COc1cccc(CC(=O)NNC(=S)NC(=O)/C=C/c2cc(Br)cc(Br)c2)c1 [LW-26, 3-(3,5-Dibromo-phenyl)-N-{N′-[2-(3-methoxy-phenyl)-acetyl]-hydrazinocarbothioyl}-acrylamide] |  | 202 to 203 °C |
| O=C(COc1ccc(Cl)cc1)NCC(=O)Nc1c(F)cccc1F [MM-20, 2-(4-Chloro-phenoxy)-N-[(2,6-difluoro-phenylcarbamoyl)-methyl]acetamide] |  | 184 to 185 °C |
| COc1ccc(OCC(=O)NCC(=O)Nc2ccc(OC)cc2C)cc1 [MM-18, N-[(4-Methoxy-2-methyl-phenylcarbamoyl)-methyl]-2-(4-methoxy-phenoxy)-acetamide] |  | 143 to 144 °C |
| O=C(CNS(=O)(=O)Cc1ccccc1)Nc1cccc(Br)c1 [DR-12, N-(3-bromophenyl)-2-phenylmethanesulfonylaminoacetamide] |  | 215 to 216 °C |
| O=C(COc1ccc(OCc2ccccc2)cc1)NCC(=O)Nc1c(F)cccc1F [MM-34, 2-(4-Benzyloxy-phenoxy)-N-[(2,6-difluoro-phenylcarbamoyl)-methyl]-acetamide] |  | 145 to 146 °C |
